Assay results taken from PubChem BioAssay AID1963962 (Molecular Pharmacology Branch, DTP, NCI, 2024).
Blank lines part the entries; values can stand above or below the molecule they belong to.

Tested on: 967376-340-R-J2-PDC multicell spheroid viability
Test: Anticancer human tumor 967376-340-R-J2-PDC patient-derived colon adenocarcinoma cell line growth inhibition [PI3K]
Settings: for IC50: curve of first compound; for viability, T/C: stronger effect = lower value
Method in brief: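 Complex 3D spheroids (cancer cells + endothelial HUVEC + mesenchymal stem cells); drug pairs of targeted agent x inavolisib/alpelisib/duvelisib/copanlisib; half-log series from ~Cmax, max 10 microM if Cmax unknown; endpoint viability.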
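Further: spheroids exposed to agents for 7 days before read-out.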
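Wherever viability, T/C is given: luminescence used as surrogate of cell viability.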

IC50 (second compound 0.0316 µM): > 10000 nM | IC50 (second compound 0.1 µM): > 10000 nM | IC50 (second compound 0.316 µM): > 10000 nM | IC50 (second compound 1 µM): > 10000 nM | IC50 (second compound 3.16 µM): > 10000 nM | IC50 (second compound 10 µM): > 10000 nM
SMILES: CNC(=O)c1ccc(N2C(=S)N(c3ccc(C#N)c(C(F)(F)F)c3)C(=O)C2(C)C)cc1F + Cc1nc(NC(=O)N2CCCC2C(N)=O)sc1-c1ccnc(C(C)(C)C(F)(F)F)c1
viability, T/C (second compound 0.0316 µM, first compound 0.0316 µM): 72.6% | viability, T/C (second compound 0.0316 µM, first compound 0.1 µM): 93.5% | viability, T/C (second compound 0.0316 µM, first compound 0.316 µM): 90.1% | viability, T/C (second compound 0.0316 µM, first compound 1 µM): 98.6% | viability, T/C (second compound 0.0316 µM, first compound 3.16 µM): 107% | viability, T/C (second compound 0.0316 µM, first compound 10 µM): 105% | viability, T/C (second compound 0.1 µM, first compound 0.0316 µM): 129% | viability, T/C (second compound 0.1 µM, first compound 0.1 µM): 85.5% | viability, T/C (second compound 0.1 µM, first compound 0.316 µM): 86.8% | viability, T/C (second compound 0.1 µM, first compound 1 µM): 88.5% | viability, T/C (second compound 0.1 µM, first compound 3.16 µM): 101% | viability, T/C (second compound 0.1 µM, first compound 10 µM): 84% | viability, T/C (second compound 0.316 µM, first compound 0.0316 µM): 64.2% | viability, T/C (second compound 0.316 µM, first compound 0.1 µM): 72.8% | viability, T/C (second compound 0.316 µM, first compound 0.316 µM): 92.6% | viability, T/C (second compound 0.316 µM, first compound 1 µM): 83.5% | viability, T/C (second compound 0.316 µM, first compound 3.16 µM): 115% | viability, T/C (second compound 0.316 µM, first compound 10 µM): 85.8% | viability, T/C (second compound 1 µM, first compound 0.0316 µM): 65.6% | viability, T/C (second compound 1 µM, first compound 0.1 µM): 70% | viability, T/C (second compound 1 µM, first compound 0.316 µM): 65.6% | viability, T/C (second compound 1 µM, first compound 1 µM): 68.5% | viability, T/C (second compound 1 µM, first compound 3.16 µM): 79.7% | viability, T/C (second compound 1 µM, first compound 10 µM): 75% | viability, T/C (second compound 3.16 µM, first compound 0.0316 µM): 58.9% | viability, T/C (second compound 3.16 µM, first compound 0.1 µM): 62.6% | viability, T/C (second compound 3.16 µM, first compound 0.316 µM): 58.7% | viability, T/C (second compound 3.16 µM, first compound 1 µM): 55.9% | viability, T/C (second compound 3.16 µM, first compound 3.16 µM): 63.6% | viability, T/C (second compound 3.16 µM, first compound 10 µM): 59% | viability, T/C (second compound 10 µM, first compound 0.0316 µM): 63.9% | viability, T/C (second compound 10 µM, first compound 0.1 µM): 55% | viability, T/C (second compound 10 µM, first compound 0.316 µM): 53.2% | viability, T/C (second compound 10 µM, first compound 1 µM): 57.3% | viability, T/C (second compound 10 µM, first compound 3.16 µM): 47.3% | viability, T/C (second compound 10 µM, first compound 10 µM): 59.5%

IC50 (second compound 0.0316 µM): 659 nM | IC50 (second compound 0.1 µM): 679 nM | IC50 (second compound 0.316 µM): 360 nM | IC50 (second compound 1 µM): 304 nM | IC50 (second compound 3.16 µM): 97.7 nM | IC50 (second compound 10 µM): 39.4 nM
SMILES: Cn1cnc2c(F)c(Nc3ccc(Br)cc3Cl)c(C(=O)NOCCO)cc21 + Cc1nc(NC(=O)N2CCCC2C(N)=O)sc1-c1ccnc(C(C)(C)C(F)(F)F)c1
viability, T/C (second compound 0.0316 µM, first compound 0.00949 µM): 89% | viability, T/C (second compound 0.0316 µM, first compound 0.03 µM): 101% | viability, T/C (second compound 0.0316 µM, first compound 0.0949 µM): 104% | viability, T/C (second compound 0.0316 µM, first compound 0.3 µM): 60% | viability, T/C (second compound 0.0316 µM, first compound 0.949 µM): 48.1% | viability, T/C (second compound 0.0316 µM, first compound 3 µM): 19.7% | viability, T/C (second compound 0.1 µM, first compound 0.00949 µM): 88.3% | viability, T/C (second compound 0.1 µM, first compound 0.03 µM): 56.1% | viability, T/C (second compound 0.1 µM, first compound 0.0949 µM): 76.7% | viability, T/C (second compound 0.1 µM, first compound 0.3 µM): 61.8% | viability, T/C (second compound 0.1 µM, first compound 0.949 µM): 43.8% | viability, T/C (second compound 0.1 µM, first compound 3 µM): 28.7% | viability, T/C (second compound 0.316 µM, first compound 0.00949 µM): 68.5% | viability, T/C (second compound 0.316 µM, first compound 0.03 µM): 81.5% | viability, T/C (second compound 0.316 µM, first compound 0.0949 µM): 62.5% | viability, T/C (second compound 0.316 µM, first compound 0.3 µM): 56.7% | viability, T/C (second compound 0.316 µM, first compound 0.949 µM): 27% | viability, T/C (second compound 0.316 µM, first compound 3 µM): 16% | viability, T/C (second compound 1 µM, first compound 0.00949 µM): 68.8% | viability, T/C (second compound 1 µM, first compound 0.03 µM): 64.4% | viability, T/C (second compound 1 µM, first compound 0.0949 µM): 61.1% | viability, T/C (second compound 1 µM, first compound 0.3 µM): 51.6% | viability, T/C (second compound 1 µM, first compound 0.949 µM): 28.4% | viability, T/C (second compound 1 µM, first compound 3 µM): 15.6% | viability, T/C (second compound 3.16 µM, first compound 0.00949 µM): 54% | viability, T/C (second compound 3.16 µM, first compound 0.03 µM): 64.8% | viability, T/C (second compound 3.16 µM, first compound 0.0949 µM): 49.2% | viability, T/C (second compound 3.16 µM, first compound 0.3 µM): 26.6% | viability, T/C (second compound 3.16 µM, first compound 0.949 µM): 9.72% | viability, T/C (second compound 3.16 µM, first compound 3 µM): 3.22% | viability, T/C (second compound 10 µM, first compound 0.00949 µM): 54.6% | viability, T/C (second compound 10 µM, first compound 0.03 µM): 49.7% | viability, T/C (second compound 10 µM, first compound 0.0949 µM): 44.6% | viability, T/C (second compound 10 µM, first compound 0.3 µM): 28.8% | viability, T/C (second compound 10 µM, first compound 0.949 µM): 5.99% | viability, T/C (second compound 10 µM, first compound 3 µM): 1.33%
